# Source: ChEMBL document CHEMBL2146442, “High-affinity and selective dopamine D₃ receptor full agonists” (Bioorg Med Chem Lett, 2012)
# What was measured:
# [1] = Displacement of [3H]Spiperone from dopamine D2 like receptor in rat brain homogenates; assay type: tissue-based
# [2] = biological target: D(3) dopamine receptor (Rattus norvegicus, UniProt P19020); assay: Displacement of [3H]-R(+)-7-OHDPAT from dopamine D3 receptor in rat brain homogenates; assay type: tissue-based
# [3] = organism: Rattus norvegicus; assay: Selectivity ratio of Ki for dopamine D1 like receptor in rat brain homogenates to Ki for dopamine D3 receptor in rat brain homogenates; assay type: tissue-based
# [4] = Displacement of [3H]SCH23390 from dopamine D1 like receptor in rat brain homogenates; assay type: tissue-based
# [5] = Selectivity ratio of dopamine D1 like receptor to dopamine D3 receptor
# [6] = Selectivity ratio of dopamine D2 receptor to dopamine D3 receptor
# [7] = biological target: D(3) dopamine receptor (Homo sapiens, UniProt P35462); assay: Agonist activity at human dopamine D3 receptor expressed in CHO cells by mitogenesis assay; assay type: functional, cell-based
# D(3) dopamine receptor (Homo sapiens, UniProt P35462), sequence (P35462 whole entry): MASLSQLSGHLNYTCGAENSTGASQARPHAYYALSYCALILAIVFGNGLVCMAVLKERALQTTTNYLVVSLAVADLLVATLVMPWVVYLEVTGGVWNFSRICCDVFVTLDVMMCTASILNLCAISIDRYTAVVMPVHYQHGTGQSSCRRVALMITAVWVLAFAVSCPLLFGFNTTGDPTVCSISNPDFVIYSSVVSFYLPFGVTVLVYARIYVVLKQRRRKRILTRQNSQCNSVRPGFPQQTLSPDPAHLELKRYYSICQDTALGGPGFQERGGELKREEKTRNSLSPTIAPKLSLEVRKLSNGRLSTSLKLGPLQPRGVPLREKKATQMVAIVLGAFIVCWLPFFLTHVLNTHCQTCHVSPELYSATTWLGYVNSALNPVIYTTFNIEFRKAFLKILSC
# D(3) dopamine receptor (Rattus norvegicus, UniProt P19020), sequence (P19020 whole entry): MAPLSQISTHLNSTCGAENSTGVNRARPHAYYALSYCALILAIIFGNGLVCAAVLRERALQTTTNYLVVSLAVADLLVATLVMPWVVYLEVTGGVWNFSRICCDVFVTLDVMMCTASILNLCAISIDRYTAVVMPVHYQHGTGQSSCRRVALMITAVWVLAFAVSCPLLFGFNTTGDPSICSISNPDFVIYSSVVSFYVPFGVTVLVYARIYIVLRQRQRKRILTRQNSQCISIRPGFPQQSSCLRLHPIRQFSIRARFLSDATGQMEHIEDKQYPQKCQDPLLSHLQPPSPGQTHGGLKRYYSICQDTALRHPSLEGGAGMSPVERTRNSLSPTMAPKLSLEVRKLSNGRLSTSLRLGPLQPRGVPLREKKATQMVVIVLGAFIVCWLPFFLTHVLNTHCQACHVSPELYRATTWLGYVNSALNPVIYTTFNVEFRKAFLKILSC
Compound,Ki [1],Ki [2],Ratio Ki [3],Ki [4],Selectivity ratio [5],Selectivity ratio [6],EC50 [7]
CCCN[C@H]1CCc2nc(N)sc2C1 [PRAMIPEXOLE],–,–,–,> 100000 nM,–,–,–
CCCN(CC[C@H]1CC[C@H](NC(=O)c2ccc(-c3noc(C4CC4)n3)cc2)CC1)[C@H]1CCc2nc(N)sc2C1,633 nM,3.5 nM,3240,11400 nM,–,–,–
CCCN(CC[C@H]1CC[C@H](NC(=O)/C=C/c2cccc(OC)c2)CC1)[C@H]1CCc2nc(N)sc2C1,122 nM,9.3 nM,953,8890 nM,–,–,–
O=C(NC/C=C/CN1CCN(c2cccc(Cl)c2Cl)CC1)c1ccc(-c2ccccn2)cc1,–,–,–,–,> 1000,100,–
CCCN(CC[C@H]1CC[C@H](NS(=O)(=O)c2ccc(Cl)cc2)CC1)[C@H]1CCc2nc(N)sc2C1,71 nM,0.95 nM,8750,8290 nM,–,–,–
CCCN(CC[C@H]1CC[C@H](NC(=O)c2ccc(-c3noc(C(C)C)n3)cc2)CC1)[C@H]1CCc2nc(N)sc2C1,470 nM,2 nM,5370,10900 nM,–,–,–
CCCN(CCN1CCN(c2ccc(-c3ccccc3)cc2)CC1)[C@H]1CCc2nc(N)sc2C1,–,–,–,–,> 1000,100,–
CCCN(CC[C@H]1CC[C@H](NC(=O)/C=C/c2ccccc2OC)CC1)[C@H]1CCc2nc(N)sc2C1,102 nM,8.1 nM,983,7920 nM,–,–,–
CCCN(CC[C@H]1CC[C@H](NC(=O)c2cccc(-c3noc(CC)n3)c2)CC1)[C@H]1CCc2nc(N)sc2C1,491 nM,1.5 nM,3450,5000 nM,–,–,–
CCCN(CC[C@H]1CC[C@H](NC(=O)c2cccc(-c3noc(C)n3)c2)CC1)[C@H]1CCc2nc(N)sc2C1,359 nM,0.73 nM,13700,9940 nM,–,–,4.3 nM
CCCN(CC[C@H]1CC[C@H](NC(=O)c2ccc(-c3noc(CC)n3)cc2)CC1)[C@H]1CCc2nc(N)sc2C1,328 nM,2.1 nM,8380,17700 nM,–,–,–
CCCN(CC[C@H]1CC[C@H](NC(=O)c2ccc(-n3ccnc3)cc2)CC1)[C@H]1CCc2nc(N)sc2C1,23 nM,1.9 nM,19900,37200 nM,–,–,–
CCCN(CC[C@H]1CC[C@H](NC(=O)/C=C/c2cccc(Cl)c2)CC1)[C@H]1CCc2nc(N)sc2C1,52 nM,1.2 nM,4640,5770 nM,–,–,–
CCCN(CC[C@H]1CC[C@H](NC(=O)c2cccc(-n3ccnc3)c2)CC1)[C@H]1CCc2nc(N)sc2C1,32 nM,1.1 nM,21800,24700 nM,–,–,–
CCCN(CC[C@H]1CC[C@H](NC(=O)c2cccc(-n3cncn3)c2)CC1)[C@H]1CCc2nc(N)sc2C1,43 nM,3 nM,19900,59700 nM,–,–,–
O=C(NCCCCN1CCN(c2cccc(Cl)c2Cl)CC1)c1ccc2c(c1)Cc1ccccc1-2,–,–,–,–,> 1000,100,–
CCCN(CC[C@H]1CC[C@H](NC(=O)/C=C/c2ccc(Cl)cc2)CC1)[C@H]1CCc2nc(N)sc2C1,27 nM,2.5 nM,1600,4030 nM,–,–,–
CCCN(CC[C@H]1CC[C@H](NC(=O)/C=C/c2cccc(F)c2)CC1)[C@H]1CCc2nc(N)sc2C1,80 nM,9.9 nM,666,6610 nM,–,–,–
CCCN(CC[C@H]1CC[C@H](NC(=O)c2ccc(-n3cncn3)cc2)CC1)[C@H]1CCc2nc(N)sc2C1,56 nM,2.4 nM,5960,14000 nM,–,–,–
COc1ccccc1N1CCN(CC(O)CCNC(=O)c2cc3ccccc3[nH]2)CC1 (stereo unspecified),–,–,–,–,> 1000,100,–
O=C(NCC[C@@H](O)CN1CCN(c2cccc(Cl)c2Cl)CC1)c1cc2ccccc2[nH]1,–,–,–,–,> 1000,100,–
CCCN(CC[C@H]1CC[C@H](NC(=O)c2ccc(-c3noc(C)n3)cc2)CC1)[C@H]1CCc2nc(N)sc2C1,442 nM,1.3 nM,27000,34600 nM,–,–,–
CCCN(CC[C@H]1CC[C@H](NC(=O)/C=C/c2ccc(F)cc2)CC1)[C@H]1CCc2nc(N)sc2C1,66 nM,1 nM,4670,4670 nM,–,–,–

# Second part, the compound after the results:
Ki [1],Ki [2],Ratio Ki [3],Ki [4],Selectivity ratio [5],Selectivity ratio [6],EC50 [7],Compound
14 nM,1.5 nM,2430,3690 nM,–,–,–,CCCN(CC[C@H]1CC[C@H](NS(=O)(=O)c2ccc3ccccc3c2)CC1)[C@H]1CCc2nc(N)sc2C1
133 nM,4.5 nM,1810,8150 nM,–,–,–,CCCN(CC[C@H]1CC[C@H](NS(=O)(=O)c2ccc(C(C)C)cc2)CC1)[C@H]1CCc2nc(N)sc2C1
38 nM,0.78 nM,27500,21300 nM,–,–,–,CCCN(CC[C@H]1CC[C@H](NS(=O)(=O)c2ccc(OC)cc2)CC1)[C@H]1CCc2nc(N)sc2C1
92 nM,2.9 nM,3510,10000 nM,–,–,–,CCCN(CC[C@H]1CC[C@H](NC(=O)/C=C/c2ccccc2F)CC1)[C@H]1CCc2nc(N)sc2C1
57 nM,0.79 nM,29700,23400 nM,–,–,–,CCCN(CC[C@H]1CC[C@H](NS(=O)(=O)c2ccccc2)CC1)[C@H]1CCc2nc(N)sc2C1
64 nM,5.9 nM,4500,26400 nM,–,–,–,CCCN(CC[C@H]1CC[C@H](NC(=O)c2cccc3cnccc23)CC1)[C@H]1CCc2nc(N)sc2C1
101 nM,5 nM,626,3150 nM,–,–,–,CCCN(CC[C@H]1CC[C@H](NS(=O)(=O)c2ccc(C(C)(C)C)cc2)CC1)[C@H]1CCc2nc(N)sc2C1
52 nM,3 nM,4870,14400 nM,–,–,–,CCCN(CC[C@H]1CC[C@H](NC(=O)c2ccc(-n3cccn3)cc2)CC1)[C@H]1CCc2nc(N)sc2C1
88 nM,1.6 nM,6050,11300 nM,–,–,–,CCCN(CC[C@H]1CC[C@H](NC(=O)c2ccc3ccccc3n2)CC1)[C@H]1CCc2nc(N)sc2C1
62 nM,0.89 nM,9470,8400 nM,–,–,–,CCCN(CC[C@H]1CC[C@H](NS(=O)(=O)c2cccc(C)c2)CC1)[C@H]1CCc2nc(N)sc2C1
–,0.72 nM,–,10400 nM,–,–,–,CCCN(CC[C@H]1CC[C@H](NS(=O)(=O)c2cccc(F)c2)CC1)[C@H]1CCc2nc(N)sc2C1
30 nM,1.2 nM,4650,5440 nM,–,–,–,CCCN(CC[C@H]1CC[C@H](NC(=O)/C=C/c2ccccc2Cl)CC1)[C@H]1CCc2nc(N)sc2C1
75 nM,41 nM,44,1800 nM,–,–,–,CCCN(CC[C@H]1CC[C@H](NS(=O)(=O)c2ccc(-c3ccccc3)cc2)CC1)[C@H]1CCc2nc(N)sc2C1
–,0.68 nM,–,9480 nM,–,–,–,CCCN(CC[C@H]1CC[C@H](NS(=O)(=O)c2ccccc2Cl)CC1)[C@H]1CCc2nc(N)sc2C1
–,0.93 nM,–,10700 nM,–,–,–,CCCN(CC[C@H]1CC[C@H](NS(=O)(=O)c2cnccc2Cl)CC1)[C@H]1CCc2nc(N)sc2C1
28 nM,0.63 nM,12900,8190 nM,–,–,–,CCCN(CC[C@H]1CC[C@H](NS(=O)(=O)c2ccc(Cl)nc2)CC1)[C@H]1CCc2nc(N)sc2C1
94 nM,6.7 nM,1200,8030 nM,–,–,–,CCCN(CC[C@H]1CC[C@H](NC(=O)/C=C/c2ccc(OC)cc2)CC1)[C@H]1CCc2nc(N)sc2C1
–,1.1 nM,–,5550 nM,–,–,–,CCCN(CC[C@H]1CC[C@H](NS(=O)(=O)c2cccc(Cl)c2)CC1)[C@H]1CCc2nc(N)sc2C1
45 nM,2 nM,23800,46900 nM,–,–,–,CCCN(CC[C@H]1CC[C@H](NC(=O)c2ccccc2-n2cccn2)CC1)[C@H]1CCc2nc(N)sc2C1
170 nM,0.38 nM,46300,17400 nM,–,–,1.5 nM,CCCN(CC[C@H]1CC[C@H](NS(=O)(=O)c2cccnc2Cl)CC1)[C@H]1CCc2nc(N)sc2C1
72 nM,1.6 nM,27100,44000 nM,–,–,–,CCCN(CC[C@H]1CC[C@H](NC(=O)c2cccc3ncccc23)CC1)[C@H]1CCc2nc(N)sc2C1
31 nM,1.5 nM,3160,4670 nM,–,–,–,CCCN(CC[C@H]1CC[C@H](NS(=O)(=O)c2cccc3ccccc23)CC1)[C@H]1CCc2nc(N)sc2C1
